This note sets out measurements from PubChem BioAssay AID686923 (Vanderbilt Specialized Chemistry Center, 2013).

Active and inactive are the calls of the source. No rule for the calls is given here.

Test [1] concerns the target In vitro counter assay against key known off-targets for selectedBMP Compounds. Briefly: PubChem AID 686923. The following applies: in vitro kinase counter-screen panel. On the technique in general: Counterscreens check selectivity or assay interference.
Test [2] has as its target Vascular endothelial growth factor receptor 2 (Homo sapiens) (UniProt P35968). Briefly: PubChem AID 686923. Conditions: in vitro kinase counter-screen panel.

Sequence of Vascular endothelial growth factor receptor 2 (Homo sapiens) (P35968 whole entry, looked up): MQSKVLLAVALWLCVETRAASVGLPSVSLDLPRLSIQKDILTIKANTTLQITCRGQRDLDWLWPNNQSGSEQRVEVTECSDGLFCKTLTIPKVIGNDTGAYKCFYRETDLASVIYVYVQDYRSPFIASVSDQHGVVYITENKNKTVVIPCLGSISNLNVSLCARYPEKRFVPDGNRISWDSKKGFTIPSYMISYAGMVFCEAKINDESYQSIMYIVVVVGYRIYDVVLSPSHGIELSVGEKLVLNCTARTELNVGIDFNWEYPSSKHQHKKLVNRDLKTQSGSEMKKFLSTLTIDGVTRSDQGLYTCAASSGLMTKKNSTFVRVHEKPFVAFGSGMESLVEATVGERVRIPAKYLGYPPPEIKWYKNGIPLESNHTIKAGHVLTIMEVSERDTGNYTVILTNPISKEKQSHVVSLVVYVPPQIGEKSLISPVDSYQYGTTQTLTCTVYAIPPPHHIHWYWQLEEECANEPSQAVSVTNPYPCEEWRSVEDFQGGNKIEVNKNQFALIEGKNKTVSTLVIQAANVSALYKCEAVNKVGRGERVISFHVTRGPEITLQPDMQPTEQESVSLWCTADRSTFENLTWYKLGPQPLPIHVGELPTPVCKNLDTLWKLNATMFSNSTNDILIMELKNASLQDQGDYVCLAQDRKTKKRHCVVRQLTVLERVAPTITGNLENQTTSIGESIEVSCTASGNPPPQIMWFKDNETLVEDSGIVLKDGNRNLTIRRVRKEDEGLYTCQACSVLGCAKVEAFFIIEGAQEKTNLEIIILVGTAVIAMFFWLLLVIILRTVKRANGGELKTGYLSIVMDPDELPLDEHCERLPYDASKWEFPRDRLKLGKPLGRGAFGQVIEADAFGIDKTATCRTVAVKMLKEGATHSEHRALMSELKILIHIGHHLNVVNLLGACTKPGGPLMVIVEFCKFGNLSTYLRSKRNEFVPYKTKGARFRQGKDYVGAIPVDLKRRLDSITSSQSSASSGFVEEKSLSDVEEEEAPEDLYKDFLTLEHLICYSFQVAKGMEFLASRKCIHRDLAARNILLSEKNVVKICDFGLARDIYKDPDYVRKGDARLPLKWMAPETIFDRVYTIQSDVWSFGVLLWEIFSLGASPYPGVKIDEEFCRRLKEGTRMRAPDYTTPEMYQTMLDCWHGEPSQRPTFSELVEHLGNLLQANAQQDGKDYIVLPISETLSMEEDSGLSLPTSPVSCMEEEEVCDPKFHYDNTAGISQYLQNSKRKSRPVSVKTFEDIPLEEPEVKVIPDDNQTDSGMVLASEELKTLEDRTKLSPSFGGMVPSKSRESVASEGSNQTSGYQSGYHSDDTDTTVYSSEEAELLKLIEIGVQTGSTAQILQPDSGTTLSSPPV

Usually IC50 stands for the point on the concentration scale where inhibition reaches its midpoint. As to `c1cc(-c2cnn3cc(-c4ccc(N5CCNCC5)cc4)cnc23)c2cccnc2c1`, the 50% inhibitory concentration (IC50) in test [1] was 253 µM. For `COc1ccc(-c2cnc3c(-c4cccc5ncccc45)cnn3c2)cc1`, the IC50 result in test [2] was “inactive”. In the case of `COc1ccc(-c2cnc3c(-c4cccc5cccnc45)cnn3c2)cc1`, the IC50 entry in test [2] and in test [1] was “inactive” throughout.
